Data from patent US20230399314A1, “CD73 INHIBITOR AND USE THEREOF” (WUHAN HUMANWELL INNOVATIVE DRUG RESEARCH AND DEVELOPMENT …, priority 2020, published 2023).
Each block holds one compound with its values, some of them ahead of it.

Legend:
Human-CD73 enzyme = Human-CD73 enzyme (Homo sapiens (Human), UniProt P21589); assay: In vitro inhibitory activity to recombinant human CD73 enzyme (ATP-GLO); type: biochemical; details: Human-CD73 0.1 μg/mL, AMP 100 μM
Procedure: Human-CD73 (Novoprotein; C446) was diluted with Tris-MgCl2 buffer to form a stock solution (3×), which was placed in a 96-well plate according to 20 μL/well to obtain a final concentration of 0.1 μg/mL. The compound was diluted with Tris-MgCl2 buffer to form a stock solution (3×) of an appropriate concentration gradient, the compound solution was added to the above 96-well plate according to 20 μL/well and uniformly mixed with the Human-CD73 solution, and the mixture was incubated at the room temperature for 30 min. Meanwhile, a positive reference group (without the compound) and a negative reference group (without CD73) were set. AMP (Sigma; A1752-5G) was diluted with Tris-MgCl2 buffer to form a stock solution (3×), which was added to the above 96-well plate according to 20 μL/well to obtain a final concentration of 100 μM, and the mixture was uniformly mixed and incubated at 37° C. for 60 min; ATP (Sigma; A7699-1G) was diluted with Tris-MgCl2 buffer to form a stock solution (7×), which was added to the above 96-well plate according to 10 μL/well to obtain a final concentration of 100 μM, and the mixture was uniformly mixed, incubated for 5 min, and tested by using an ATP-GLO kit (Promega; G7573).
(§1) Human-CD73 inhibition rates of the compound at different concentrations were calculated according to the following formula, the concentration of the compound was taken as the X-axis, the inhibition rate was taken as the Y-axis, and an IC50 value of the compound in inhibiting Human-CD73 was calculated by using Prism software.

Human CD4+ T cells = assay: Relieving AMP-induced proliferation inhibition of human CD4+ T cells (CCK8); type: cell-based; details: AMP 0.3 mM, day 5
Procedure: On day 1 of the experiment, CD4^+ T cells (Allcells Shanghai, PB009-2F-C) were thawed, and inoculated into two replicate wells according to 3×10^4 cells/well and 50 μL/well. The compound was diluted with a complete medium to form a stock solution (4×) of an appropriate concentration gradient, the compound solution was added to the above cells according to 50 μL/well, and the mixture was pre-incubated at 37° C. for 30 min. […] Meanwhile, a positive reference group (Human CD4^+ T+IL-2+CD3/CD28 beads) and a negative reference group (Human CD4^+ T+IL-2+CD3/CD28 beads+AMP) were set. AMP (Sigma; A1752-5G) was diluted with a complete medium to form an AMP solution (4×), the AMP solution was added to the above cells according to 50 μL/well, the final concentration was 0.3 mM, and the mixture was incubated at 37° C. On day 3 of the experiment, the AMP solution was added to the above plate according to 20 μL/well, and the final concentration was 0.3 mM. On day 5, the proliferation of the cells was detected by using a CCK8 kit (DojinDO; CK04).
Inhibition rates of the compound at different concentrations in relieving AMP-induced proliferation inhibition of CD4^+ T cells were calculated according to the following formula, the concentration of the compound was taken as the X-axis, the inhibition rate was taken as the Y-axis, and an EC50 value of the compound in relieving the AMP-induced proliferation inhibition of CD4^+ T cells was calculated by using Prism software.

[1] = Pharmacokinetic test on dogs; type: in vivo, male Beagle dogs
Procedure: (§2) In a pharmacokinetic test on mice, male ICR mice of 20 g to 25 g were used and fasted overnight. 3 mice were selected for orally intragastric administration (10 mg/kg). Before administration, and 15 min, 30 min, 1 h, 2 h, 4 h, 8 h, and 24 h after administration, blood was sampled from each mouse. Another 3 mice were selected for intravenous injection administration (3 mg/kg), and before administration, and 15 min, 30 min, 1 h, 2 h, 4 h, 8 h, and 24 h after administration, blood was sampled from each mouse. The blood sample was centrifuged at 6,800 g and 2 to 8° C. for 6 min, and plasma was collected and stored at −80° C. The plasma of each time point was vortex-mixed for 1 min with an acetonitrile solution containing the internal standard with a volume 3-5 times that of the plasma of each time point, and centrifuged at 13,000 rpm and 4° C. for 10 min, a supernatant was collected and mixed with water with a volume 3 times that of the supernatant, and an appropriate amount of the mixed solution was used for LC-MS/MS analysis. The main pharmacokinetic parameters were analyzed by using a WinNonlin 7.0 non-compartmental model.
In a pharmacokinetic test on dogs, male Beagle dogs of 8 to 10 kg were used and fasted overnight. 3 Beagle dogs were selected for orally intragastric administration (5 mg/kg). Another 3 Beagle dogs were selected for intravenous injection administration (1 mg/kg). Other operations were the same as the pharmacokinetic test on mice.

[2] = Pharmacokinetic test on mice; type: in vivo, male ICR mice; details: for Vd: read-out: Vz; for pharmacokinetic properties compared to the reference compounds: mice
Procedure: as §2

[3] = target: CD73 bound to the surfaces of A375 cells (Homo sapiens (Human), UniProt P21589); assay: Inhibitory activity to CD73 enzyme bound to the surfaces of human melanoma A375 cells; type: cell-based; details: AMP 200 μM, 16 h
Procedure: The compound was diluted with serum-free DMEM to form a stock solution (5×) of an appropriate concentration gradient, the compound solution was added to the cells in the above 96-well plate according to 20 μL/well, and the mixture was placed in an incubator and pre-incubated for 30 min.
as §1, with “A375-bound CD73” for “Human-CD73”

[4] = male, Beagle, plasma, po, dog, orally intragastric 5 mg/kg
[5] = male, Beagle, plasma, dog, intravenous injection 1 mg/kg
[6] = male, ICR, plasma, po, mouse, orally intragastric 10 mg/kg
[7] = male, ICR, plasma, po, mouse, orally intragastric 10 mg/kg, read-out: AUC0-t
[8] = male, ICR, plasma, po, mouse, orally intragastric 10 mg/kg, read-out: Cmax
[9] = male, ICR, plasma, po, mouse, orally intragastric 10 mg/kg, read-out: Tmax
[10] = male, ICR, plasma, mouse, intravenous injection 3 mg/kg
[11] = male, ICR, plasma, mouse, intravenous injection 3 mg/kg, read-out: AUC0-t
[12] = mouse, orally intragastric 10 mg/kg

CD73 bound to the surfaces of A375 cells, sequence (P21589 27-574): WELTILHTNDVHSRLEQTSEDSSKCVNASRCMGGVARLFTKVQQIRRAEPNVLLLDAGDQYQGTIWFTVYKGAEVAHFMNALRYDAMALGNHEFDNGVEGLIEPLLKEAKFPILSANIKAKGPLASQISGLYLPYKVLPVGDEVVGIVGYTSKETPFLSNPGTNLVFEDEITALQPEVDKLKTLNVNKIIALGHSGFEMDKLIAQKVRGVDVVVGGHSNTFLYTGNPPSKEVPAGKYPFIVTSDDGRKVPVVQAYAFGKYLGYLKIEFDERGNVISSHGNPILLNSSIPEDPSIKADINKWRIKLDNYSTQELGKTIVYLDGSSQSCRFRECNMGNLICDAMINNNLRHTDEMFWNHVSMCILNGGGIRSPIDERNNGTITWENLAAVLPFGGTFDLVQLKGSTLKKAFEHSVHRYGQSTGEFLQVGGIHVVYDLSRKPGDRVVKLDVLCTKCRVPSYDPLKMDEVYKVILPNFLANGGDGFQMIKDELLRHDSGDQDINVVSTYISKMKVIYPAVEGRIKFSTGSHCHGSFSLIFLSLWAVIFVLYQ
Human-CD73 enzyme, sequence (P21589 27-574): as above

IC50 (Human-CD73 enzyme): 15.4 nM
Structure (SMILES): COC[C@H]1C[C@@H]1c1cc(-c2c[nH]c(=O)[nH]c2=O)nnc1Cl [Compound 12, 5-(6-chloro-5-((1S,2S)-2-(methoxymethyl)cyclopropyl)pyridazin-3-yl)pyrimidine-2,4(1H,3H)-dione]

exposure compared to the reference compounds ([1]; dogs): much higher | AUC(0-t) [1, 4]: 16600 ng·h/mL | Cmax [1, 4]: 5710 ng/mL | Tmax [1, 4]: 0.83 h | half-life [1, 4]: 2.27 h | AUC(0-t) [1, 5]: 2100 ng·h/mL | clearance [1, 5]: 8.83 mL/min/kg | half-life [1, 5]: 0.89 h | Vd ([1]; male, Beagle, plasma, dog, intravenous injection 1 mg/kg, read-out: Vz): 0.66 L/kg | half-life [2, 6]: 3.06 h | AUC(0-t) [2, 7]: 36200 ng·h/mL | Cmax [2, 8]: 5530 ng/mL | Tmax [2, 9]: 0.67 h | clearance [2, 10]: 7.83 mL/min/kg | half-life [2, 10]: 3.72 h | AUC(0-t) [2, 11]: 6950 ng·h/mL | Vd [2, 10]: 2.57 L/kg | pharmacokinetic properties compared to the reference compounds [2]: significantly improved
Structure (SMILES): O=c1[nH]cc(-c2cc([C@H]3C[C@@H]3COC(F)(F)F)c(Cl)nn2)c(=O)[nH]1 [Compound 11, 5-(6-chloro-5-((1S,2S)-2-((trifluoromethoxy)methyl)cyclopropyl)pyridazin-3-yl)pyrimidine-2,4(1H,3H)-dione]
EC50 (Human CD4+ T cells; Homo sapiens, 120 h): 169 nM

IC50 [3]: 247 nM | half-life [2, 6]: 1.17 h | AUC(0-t) [2, 7]: 821 ng·h/mL | Cmax [2, 8]: 1150 ng/mL | Tmax [2, 9]: 0.25 h | clearance [2, 10]: 85.2 mL/min/kg | half-life [2, 10]: 1.99 h | AUC(0-t) [2, 11]: 585 ng·h/mL | Vd [2, 10]: 14.7 L/kg | IC50 (Human-CD73 enzyme): 12.5 nM
Structure (SMILES): Cc1nnc(-c2c[nH]c(=O)[nH]c2=O)cc1[C@H]1C[C@@H]1C(F)F [Reference compound 1, 5-(5-((1S,2S)-2-(difluoromethyl)cyclopropyl)-6-methylpyridazin-3-yl)pyrimidine-2,4(1H,3H)-dione, reference compound]

IC50 (Human-CD73 enzyme): 9.55 nM
Structure (SMILES): Cc1nnc(-c2c[nH]c(=O)[nH]c2=O)cc1[C@H]1C[C@@H]1CF [Compound 20, 5-(5-((1S,2S)-2-(fluoromethyl)cyclopropyl)-6-methylpyridazin-3-yl)pyrimidine-2,4(1H,3H)-dione]

IC50 [3]: 54.9 nM | IC50 (Human-CD73 enzyme): 32.1 nM
Structure (SMILES): Cc1nnc(-c2c[nH]c(=O)[nH]c2=O)cc1[C@H]1C[C@@H]1C(F)(F)F [Compound 7, 5-(6-methyl-5-((1S,2S)-2-(trifluoromethyl)cyclopropyl)pyridazin-3-yl)pyrimidine-2,4(1H,3H)-dione]

IC50 [3]: 5.56 nM | pharmacokinetic properties compared to the reference compounds [2]: significantly improved | AUC(0-t) [2, 12]: 65441 ng·h/mL | Cmax [2, 12]: 6601.90 ng/mL | T1/2 [2, 12]: 4.87 h | Tmax [2, 12]: 1.17 h | IC50 (Human-CD73 enzyme): 8.17 nM
Structure (SMILES): O=c1[nH]cc(-c2cc([C@H]3C[C@@H]3CC(F)(F)F)c(Cl)nn2)c(=O)[nH]1 [Compound 9, 5-(6-chloro-5-((1S,2R)-2-(2,2,2-trifluoroethyl)cyclopropyl)pyridazin-3-yl)pyrimidine-2,4(1H,3H)-dione]
EC50 (Human CD4+ T cells): 32.6 nM

IC50 (Human-CD73 enzyme): 16.5 nM
Structure (SMILES): O=c1[nH]cc(-c2cc([C@@H]3C[C@H]3CF)c(Cl)nn2)c(=O)[nH]1 [Compound 8, 5-(6-chloro-5-((1R,2R)-2-(fluoromethyl)cyclopropyl)pyridazin-3-yl)pyrimidine-2,4(1H,3H)-dione]

IC50 (Human-CD73 enzyme): 6870 nM
Structure (SMILES): O=c1[nH]cc(-c2cc([C@@H]3C[C@H]3CC(F)(F)F)c(Cl)nn2)c(=O)[nH]1 [Compound 13, 5-(6-chloro-5-((1R,2S)-2-(2,2,2-trifluoroethyl)cyclopropyl)pyridazin-3-yl)pyrimidine-2,4(1H,3H)-dione]

IC50 [3]: 17.6 nM | half-life [2, 6]: 1.43 h | AUC(0-t) [2, 7]: 9800 ng·h/mL | Cmax [2, 8]: 4410 ng/mL | Tmax [2, 9]: 0.42 h | clearance [2, 10]: 10.3 mL/min/kg | half-life [2, 10]: 1.82 h | AUC(0-t) [2, 11]: 5070 ng·h/mL | Vd [2, 10]: 1.5 L/kg
Structure (SMILES): O=c1[nH]cc(-c2cc([C@H]3C[C@@H]3CC(F)F)c(Cl)nn2)c(=O)[nH]1 [Compound 18, 5-(6-chloro-5-((1S,2R)-2-(2,2-difluoroethyl)cyclopropyl)pyridazin-3-yl)pyrimidine-2,4(1H,3H)-dione]

IC50 (Human-CD73 enzyme): 11.6 nM
Structure (SMILES): CC(C)(O)[C@H]1C[C@@H]1c1cc(-c2c[nH]c(=O)[nH]c2=O)nnc1Cl [Compound 5, 5-(6-chloro-5-((1S,2S)-2-(2-hydroxypropan-2-yl)cyclopropyl)pyridazin-3-yl)pyrimidine-2,4(1H,3H)-dione]

IC50 (Human-CD73 enzyme): 123 nM
Structure (SMILES): N#Cc1nnc(-c2c[nH]c(=O)[nH]c2=O)cc1[C@H]1C[C@@H]1C(F)(F)F [Compound 15, 6-(2,4-dioxo-1H-pyrimidin-5-yl)-4-((1S,2S)-2-(trifluoromethyl)cyclopropyl)pyridazine-3-carbonitrile]

IC50 (Human-CD73 enzyme): 1250 nM
Structure (SMILES): O=c1[nH]cc(-c2cc([C@@H]3C[C@H]3CC(F)F)c(Cl)nn2)c(=O)[nH]1 [Compound 19, 5-(6-chloro-5-((1R,2S)-2-(2,2-difluoroethyl)cyclopropyl)pyridazin-3-yl)pyrimidine-2,4(1H,3H)-dione]

IC50 (Human-CD73 enzyme): 173 nM
Structure (SMILES): CCOC[C@H]1C[C@@H]1c1cc(-c2c[nH]c(=O)[nH]c2=O)nnc1Cl [Compound 16, 5-(6-chloro-5-((1S,2S)-2-(ethoxymethyl)cyclopropyl)pyridazin-3-yl)-1H-pyrimidine-2,4-dione]

IC50 [3]: 26.8 nM | half-life [2, 6]: 2.7 h | AUC(0-t) [2, 7]: 107000 ng·h/mL | Cmax [2, 8]: 12100 ng/mL | Tmax [2, 9]: 0.83 h | clearance [2, 10]: 3.67 mL/min/kg | half-life [2, 10]: 3.72 h | AUC(0-t) [2, 11]: 13800 ng·h/mL | Vd [2, 10]: 1.17 L/kg | pharmacokinetic properties compared to the reference compounds [2]: significantly improved
Structure (SMILES): O=c1[nH]cc(-c2cc([C@H]3C[C@@H]3C(F)(F)F)c(Cl)nn2)c(=O)[nH]1 [Compound 3, 5-(6-chloro-5-((1S,2S)-2-(trifluoromethyl)cyclopropyl)pyridazin-3-yl)pyrimidine-2,4(1H,3H)-dione]
EC50 (Human CD4+ T cells; Homo sapiens, 120 h): 111 nM

IC50 (Human-CD73 enzyme): 164 nM
Structure (SMILES): CC(C)OC[C@H]1C[C@@H]1c1cc(-c2c[nH]c(=O)[nH]c2=O)nnc1Cl [Compound 17, 5-(6-chloro-5-((1S,2S)-2-(isopropoxymethyl)cyclopropyl)pyridazin-3-yl)-1H-pyrimidine-2,4-dione]

IC50 (Human-CD73 enzyme): 24.5 nM
Structure (SMILES): CC(O)[C@H]1C[C@@H]1c1cc(-c2c[nH]c(=O)[nH]c2=O)nnc1Cl (stereo partly drawn) [Compound 6, 5-(6-chloro-5-((1S,2S)-2-(1-hydroxyethyl)cyclopropyl)pyridazin-3-yl)pyrimidine-2,4(1H,3H)-dione]
